Read-outs that look alike come from different tables or passages of the source.

One assay deals with IL-6 in huPBMCs. The assay is described as follows: IL-6 inhibition in LPS-stimulated human peripheral blood mononuclear cells (HTRF). In kind it is cell-based. To be noted: for percent in parentheses beside EC50 >10 μM: LPS-stimulated huPBMCs, given only where EC50 >10 μM (top concentration 10 μM); for EC50: LPS-stimulated (50 ng/mL) huPBMCs, 22 hours, dose-response starting from 10 μM.

Assay [1] deals with secreted β-amyloid 40 (Aβ40) peptide, SH-SY5Y-APP cells. Put plainly: Secreted β-amyloid 40 peptide assay in APP overexpressing SH-SY5Y-APP cells. The following applies: Homo sapiens, overnight (16-18 hours). In kind it is cell-based.
Description: Representative compounds were screened using the cell-based assay procedure for secreted β-amyloid 40 (Aβ340) peptide in an APP overexpressing cell line described below.
SH-SY5Y cells were infected with lentivirus to overexpress amyloid (A4) beta precursor protein (APP), hereafter referred to as the SH-SY5Y-APP cells. […] Culture medium was changed 18 h post-transfection before a first batch of viral supernatant was then harvested at 42 h post-transfection. Culture medium was replenished once more before a second batch of viral supernatant was harvested 66 h post-transfection.
SH-SY5Y cells were seeded onto 6-well plates at 5.0×10^5 cells/well and incubated overnight at 37° C. Cells were then infected with viral supernatant at concentrations ranging from 10%→100% viral supernatant (diluted in Opti-MEM as appropriate), with 10 μg/mL Polybrene added for permeability (H9268, Sigma). […]
The cell assay procedure start 18 h prior to treatment, as SH-SY5Y-APP cells were seeded onto 96-well plates at 2.0×10^4 cells/well. […] The original plates with seeded cells were tested for cytotoxicity by measure of adenosine triphosphate (ATP) release by adding CellTiter-Glo® diluted 1:4 in distilled water (G7573, Promega) and transferring lysed cells to a completely black 96-well plate to be read with the Cytation3. […]
The subject of assay [2] is Wnt activity (Sp5-Luc reporter, TCF/LEF binding sites) in SW480 colon carcinoma cells. The assay is described as follows: Screening assay for Wnt activity: Sp5-Luc reporter gene assay in SW480 cells. Type of assay: cell-based, human. The following applies: 36 to 48 hours.
Description: The screening assay for Wnt activity is described as follows.
Following incubation, 15 μl of BriteLite Plus luminescence reagent (Perkin Elmer) was added to each well of the 384-well assay plates. The plates were placed on an orbital shaker for 2 min and then luminescence was quantified using the Envision (Perkin Elmer) plate reader.
Assay [3] concerns Tau phosphorylation at Ser396 (pSer396) in SH-SY5Y cells. Put plainly: Tau phosphorylation (pSer396) assay in SH-SY5Y cells, ELISA/western blot. In kind it is cell-based, human.
Description: Two days before treatment, cells were seeded onto 96 well plates at 5×10^4 cells/well.
Wells were visually checked for cell death or change in morphology and supernatants were tested for cytotoxicity by measurement of lactate dehydrogenase release (LDH, CytoToxOne kit, Promega) if necessary.
Cells were lysed with RIPA buffer complemented with phosphatase and protease inhibitors then lysates were spun down at 12,000 g for 10 min to remove any cellular debris. Lysates are then either directly tested for pSer396 by ELISA (Life Technology, Kit KHB7031) or loaded on NuPage Bis-Tris gels for western blot analysis. Colorimetric detection of ELISA signal is performed by Cytation3 plate reader (Biotek) and the chemiluminescence signal for HRP-linked antibodies used in western blotting is detected using a Carestream Image Station. The same pSer396 antibody is used for detection of pTau in both assays.
The test system of assay [4] is SW480 colon carcinoma cells. The assay is described as follows: Cell viability assay (CellTiter-Glo) in SW480 cells. In kind it is cell-based, human. To be noted: for EC50: four days incubation.
For assay [5], the system named is α-smooth muscle actin (αSMA) in LL29 cells. Put plainly: Fibrosis assay: TGF-β1 treated primary human fibroblasts from IPF patients (LL29), αSMA staining. In kind it is cell-based. The following applies: for percent in parentheses beside EC50 >10 μM: LL29 cells treated with TGF-β1, given only where EC50 >10 μM (top concentration 10 μM); for EC50: LL29 cells treated with TGF-β1 (20 ng/mL), 4 days.

The target of the next assay is DYRK1A kinase (Homo sapiens (Human), UniProt Q13627). The assay is described as follows: DYRK1A kinase assay (Ser/Thr 18 peptide Z-lyte FRET). In kind it is biochemical.
A further assay addresses GSK3β kinase (Homo sapiens (Human), UniProt P49841). Put plainly: GSK3β kinase assay (Ser/Thr 09 peptide Z-lyte FRET). In kind it is biochemical.
Another assay concerns TNFα, BV-2 cells. The assay is described as follows: Secreted cytokines in Lipopolysaccharide-stimulated BV-2 mouse microglial cells: TNFα. In kind it is cell-based. The following applies: LPS 250 ng/mL for 5 h. As for the experimental part:
(§1) Representative compounds were screened using the cell-based assay procedure for secreted cytokines in a Lipopolysaccharide-stimulated mouse glial cell line described below.
(§2) BV-2 cells (mouse microglial cells) were cultured in 1:1 DMEM medium supplemented with 10% FBS, and 1% penicillin/streptomycin.
(§3) BV-2 cells are plated at 35,000 cells/well in a volume of 100 ul for at least 4 hours before compounds are added. DMSO-resuspended compounds were first dispensed in a 96 well plate and serial diluted from 10 μM to 4.6 nM final concentration in medium. Compounds were added to cells overnight. Two hundred fifty ng per milliliter of lipopolysaccharide (Escherichia coli 055:B5, SIGMA) was added for 5 h. Supernatant is removed and saved for further cytokine detection. The original plates with seeded cells were tested for cytotoxicity by measure of adenosine triphosphate (ATP) release by adding CellTiter-Glo® diluted 1:4 in distilled water (G7573, Promega) and transferring lysed cells to a completely black 96-well plate to be read with the Cytation3. Supernatant was then diluted 1:2 with a diluent from V-PLEX cytokine Kit and directly tested for the secreted cytokines TNFα, IL-6 and KC-GRO using electrochemiluminescence (Meso Scale Discovery). The standard curve for each cytokine was used to convert the electrochemiluminescent signal into pg of protein per mL.

A further assay relates to IL-6, BV-2 cells. The assay is described as follows: Secreted cytokines in Lipopolysaccharide-stimulated BV-2 mouse microglial cells: IL-6. In kind it is cell-based. The following applies: LPS 250 ng/mL for 5 h. Here is the method:
as §1, §2, §3

The subject of another assay is KC-GRO, BV-2 cells. The assay is described as follows: Secreted cytokines in Lipopolysaccharide-stimulated BV-2 mouse microglial cells: KC-GRO. Type of assay: cell-based. The following applies: LPS 250 ng/mL for 5 h. Here is the method:
as §1, §2, §3

Setting [6] is: overnight (16-18 h) exposure, pSer396 Tau ELISA, read-out: pSer396 Tau EC50.
[7] abbreviates: DYRK1A kinase Z-lyte assay, 30 μM ATP, one hour at room temperature, text calls values IC50.
Setting [8] is: GSK3β kinase Z-lyte assay, 46 μM ATP, one hour at room temperature, text calls values IC50.
[9] abbreviates: Homo sapiens, overnight (16-18 h) exposure, pSer396 Tau ELISA, read-out: pSer396 Tau EC50.
The mark [10] stands for this setting: Homo sapiens, Fibroblast, 96 h, dose-response 10 μM to 0.94 nM.

Chain of GSK3β kinase (P49841 whole entry): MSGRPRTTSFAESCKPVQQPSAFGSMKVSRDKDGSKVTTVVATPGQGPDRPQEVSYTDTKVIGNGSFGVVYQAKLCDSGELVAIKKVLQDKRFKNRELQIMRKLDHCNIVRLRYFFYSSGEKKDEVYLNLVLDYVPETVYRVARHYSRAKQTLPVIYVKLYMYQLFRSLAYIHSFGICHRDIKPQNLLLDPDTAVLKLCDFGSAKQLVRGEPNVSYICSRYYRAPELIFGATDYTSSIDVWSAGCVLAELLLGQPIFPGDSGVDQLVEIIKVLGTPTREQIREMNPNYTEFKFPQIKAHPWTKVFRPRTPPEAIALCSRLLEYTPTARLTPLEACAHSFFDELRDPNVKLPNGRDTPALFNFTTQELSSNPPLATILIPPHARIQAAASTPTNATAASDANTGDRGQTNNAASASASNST
Description for IL-6 in huPBMCs: After 22 hour incubation, a mixture of anti-IL6 XL665 and anti-IL-6 Cryptate diluted in reconstitution buffer (Catalog #62IL6PEC, Cisbio Inc., Bedford, Mass.) was added to each well. […] All samples were processed in duplicate. […] EC50 was determined using software generated by Dotmatics Limited (Windhill Bishops Stortford Herts, UK) using the Levenberg-Marquardt 4 parameter fitting procedure with finite different gradients.

In the case of `Cn1cc(-c2ccc3cnc(NC(=O)C45CCN(CC4)CC5)cc3c2)cn1` [Compound 1071, N-(6-(1-Methyl-1H-pyrazol-4-yl)isoquinolin-3-yl)quinuclidine-4-carboxamide], in the assay with IL-6 in huPBMCs, the “percent in parentheses beside EC50 >10 μM” value came out at 8.8%.
On to `Cn1cncc1-c1ccc2cnc(NC(=O)C3C(C)(C)C3(C)C)cc2c1` [Compound 269, 2,2,3,3-Tetramethyl-N-[6-(3-methylimidazol-4-yl)-3-isoquinolyl]cyclopropanecarboxamide], for which, in assay [1], the concentration for half-maximal inhibition (IC50) was > 10000 nM.
Turning to `Cn1cc(-c2ccc3cnc(NC(=O)C4C(C)(C)C4(C)C)cc3c2)nn1` [Compound 277, 2,2,3,3-Tetramethyl-N-(6-(1-methyl-1H-1,2,3-triazol-4-yl)isoquinolin-3-yl) cyclopropane-1-carboxamide], the “percent in parentheses beside EC50 >10 μM” value with IL-6 in huPBMCs amounted to 4.0%.
`Cc1nnc(-c2ccc3cnc(NC(=O)CN4CCCOCC4)cc3c2)s1` [Compound 1049, N-(6-(5-Methyl-1,3,4-thiadiazol-2-yl)isoquinolin-3-yl)-2-(1,4-oxazepan-4-yl) acetamide]: the EC50 in [2] was 2540 nM; in assay [3] (setting [6]), 319 nM; in [4], > 10000 nM; in the assay on IL-6 in huPBMCs, > 10000 nM. In addition, the “percent inhibition at 10 μM” value in [4] (at 10 μM, given for EC50 of >10 μM) turned out to be 31.3%. The “percent in parentheses beside EC50 >10 μM” value in the assay on IL-6 in huPBMCs amounted to 10.4%.
As for `CC(C)CN1CCC[C@@H](C(=O)Nc2cc3cc(-c4cnn5c4CN(CCF)CC5)ccc3cn2)C1` [Compound 1002, (R)—N-(6-(5-(2-Fluoroethyl)-4,5,6,7-tetrahydropyrazolo[1,5-a]pyrazin-3-yl)isoquinolin-3-yl)-1-isobutylpiperidine-3-carboxamide], in [5], the “percent in parentheses beside EC50 >10 μM” value is on record as 27.5%.
In the case of `Cn1cc(-c2ccc3cnc(NC(=O)CN4C5CCC4CC5)cc3c2)nn1` [Compound 513, 2-(7-Azabicyclo[2.2.1]heptan-7-yl)-N-(6-(1-methyl-1H-1,2,3-triazol-4-yl)isoquinolin-3-yl)acetamide], in the assay with IL-6 in huPBMCs, the “percent in parentheses beside EC50 >10 μM” value was 14.5%.
Consider `CCN1/C(=C/C(C)=O)Sc2ccc(O)cc21` [Indy, reference compound], for which the concentration for a half-maximal effect (EC50) in assay [3] (control compounds, read-out: EC50 in the Tau assay) is > 10000 nM.
In the case of “1-Isobutyl-N-(6-(5-methyl-1,3,4-oxadiazol-2-yl)isoquinolin-3-yl)piperidine-4-carboxamide [Compound 1020]”, the concentration for a half-maximal effect (EC50) in assay [2] is 1140 nM; on DYRK1A kinase (setting [7]), 10.4 nM; at GSK3β kinase (setting [8]), 13 nM; in assay [3] (setting [6]), 49 nM; in [4], 1030 nM; in [5] (dose-response 10 μM to […]) it was > 10000 nM. The EC50 was 1180 nM in the assay with IL-6 in huPBMCs; 597 nM with TNFα, BV-2 cells; 87 nM in the assay on IL-6, BV-2 cells; 708 nM in the assay with KC-GRO, BV-2 cells. Further, in assay [5], the “percent in parentheses beside EC50 >10 μM” value worked out at 30.6%.
As to `C[C@H](F)CN1CCC(C(=O)Nc2cc3cc(-c4cnn(C)c4)ccc3cn2)CC1` [Compound 311, (S)-1-(2-Fluoropropyl)-N-(6-(1-methyl-1H-pyrazol-4-yl)isoquinolin-3-yl) piperidine-4-carboxamide], the EC50 turned out to be 578 nM in [2] (Homo sapiens); 163 nM in assay [3] (setting [9]); 751 nM in assay [4] (Homo sapiens, 96 h); 76 nM in [5] (setting [10]); 396 nM with IL-6 in huPBMCs (Homo sapiens, PBMC).
Regarding `Cn1cc(-c2ccc3cnc(NC(=O)CN4C5CCC4COC5)cc3c2)cn1` [Compound 347, 2-(3-Oxa-8-azabicyclo[3.2.1]octan-8-yl)-N-(6-(1-methyl-1H-pyrazol-4-yl)isoquinolin-3-yl)acetamide], the “percent in parentheses beside EC50 >10 μM” value with IL-6 in huPBMCs came out at 4.5%.
`Cn1cc(-c2ccc3cnc(NC(=O)C4CCN(CC(C)(C)O)CC4)cc3c2)nn1` [Compound 1070, 1-(2-Hydroxy-2-methylpropyl)-N-(6-(1-methyl-1H-1,2,3-triazol-4-yl)isoquinolin-3-yl)piperidine-4-carboxamide]: the EC50 stood at 738 nM in [2] (Homo sapiens); 7.6 nM at DYRK1A kinase; 16 nM at GSK3β kinase; 91 nM in [3] (setting [9]); 8390 nM in assay [4] (Homo sapiens, 96 h); 6470 nM in the assay with IL-6 in huPBMCs (Homo sapiens, PBMC). In the assay on IL-6, BV-2 cells (Mus musculus), the concentration giving a half-maximal response (EC50) stood at 14 nM.
Take `Cc1nnc(-c2ccc3cnc(NC(=O)CN4C5CCC4COC5)cc3c2)s1` [Compound 962, 2-(3-Oxa-8-azabicyclo[3.2.1]octan-8-yl)-N-(6-(5-methyl-1,3,4-thiadiazol-2-yl)isoquinolin-3-yl)acetamide]: the “percent in parentheses beside EC50 >10 μM” value with IL-6 in huPBMCs worked out at 9.6%.
Consider `Cc1nnc(-c2ccc3cnc(NC(=O)CN4C5CCC4CC5)cc3c2)s1` [Compound 959, 2-(7-Azabicyclo[2.2.1]heptan-7-yl)-N-(6-(5-methyl-1,3,4-thiadiazol-2-yl)isoquinolin-3-yl)acetamide], for which the “percent in parentheses beside EC50 >10 μM” value in the assay with IL-6 in huPBMCs was 6.1%.
On to `CN1CCN(C[C@H]2CC[C@H](C(=O)Nc3cc4cc(-c5cnco5)ccc4cn3)CC2)CC1` [Compound 1007, trans-4-((4-methylpiperazin-1-yl)methyl)-N-(6-(oxazol-5-yl)isoquinolin-3-yl)cyclohexane-1-carboxamide], for which the concentration giving a half-maximal response (EC50) in assay [2] (Homo sapiens) amounted to 1130 nM; on DYRK1A kinase (setting [7]) it was 2.4 nM; on GSK3β kinase (setting [8]), 83 nM; in assay [3] (setting [9]) it was 435 nM; in [4] (Homo sapiens, 96 h) it was 922 nM; in assay [5] (setting [10]), 942 nM. This compound gave a concentration for a half-maximal effect (EC50) in the assay on IL-6 in huPBMCs (Homo sapiens, PBMC) of 1260 nM.
As to `CO[C@H]1CC[C@@H](C(=O)Nc2cc3cc(-c4nnc(C)s4)ccc3cn2)CC1` [Compound 1001, cis-4-Methoxy-N-(6-(5-methyl-1,3,4-thiadiazol-2-yl)isoquinolin-3-yl) cyclohexane-1-carboxamide], the inhibition at 10 µM with IL-6 in huPBMCs (Homo sapiens, PBMC, read-out: percent in parentheses beside EC50 >10 μM) stood at 49.7%.

(Values after US10508099B2, “Isoquinolin-3-yl carboxamides and preparation and use thereof” (Samumed, LLC, priority 2016, dated 2019).)
